Experimental data reported in ChEMBL document CHEMBL3612050, “Dual inhibition of Staphylococcus aureus DNA gyrase and topoisomerase IV activity by phenylalanine-derived (Z)-5-arylmethylidene rhodanines” (Bioorg Med Chem, 2015).
Converted amounts (≈) assume the structure as drawn.

Legend:
[1] = molecular target: DNA gyrase (Staphylococcus aureus) (UniProt P0A0K8+P20831)
Description: Inhibition of Staphylococcus aureus DNA gyrase assessed as inhibition of negative supercoiling of pBR322 DNA after 30 mins by agarose gel electrophoresis

[2] = system: Staphylococcus aureus; assay: Inhibition of Staphylococcus aureus Topoisomerase 4 assessed as inhibition of supercoiled pBR322 DNA relaxation after 30 mins by agarose gel electrophoresis

Sequence of DNA gyrase (Staphylococcus aureus) (P0A0K8 2-644 limits assumed): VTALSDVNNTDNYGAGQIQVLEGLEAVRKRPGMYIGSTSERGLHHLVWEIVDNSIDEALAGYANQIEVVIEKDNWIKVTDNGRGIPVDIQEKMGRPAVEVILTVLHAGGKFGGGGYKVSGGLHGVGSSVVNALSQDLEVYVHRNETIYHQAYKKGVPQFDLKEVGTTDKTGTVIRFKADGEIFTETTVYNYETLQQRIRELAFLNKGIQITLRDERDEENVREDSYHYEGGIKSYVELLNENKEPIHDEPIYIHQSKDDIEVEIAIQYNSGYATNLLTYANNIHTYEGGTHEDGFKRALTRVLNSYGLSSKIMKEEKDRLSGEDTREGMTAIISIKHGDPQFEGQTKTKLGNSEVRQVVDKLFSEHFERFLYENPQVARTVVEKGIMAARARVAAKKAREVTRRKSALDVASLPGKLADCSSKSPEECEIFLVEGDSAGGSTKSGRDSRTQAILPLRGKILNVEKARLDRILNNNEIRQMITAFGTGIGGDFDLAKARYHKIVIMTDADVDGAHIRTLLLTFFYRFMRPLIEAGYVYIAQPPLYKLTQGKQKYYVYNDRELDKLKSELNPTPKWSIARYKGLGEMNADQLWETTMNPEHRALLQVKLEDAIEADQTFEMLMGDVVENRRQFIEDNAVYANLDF
Sequence of DNA gyrase (Staphylococcus aureus) (P20831 whole entry partner): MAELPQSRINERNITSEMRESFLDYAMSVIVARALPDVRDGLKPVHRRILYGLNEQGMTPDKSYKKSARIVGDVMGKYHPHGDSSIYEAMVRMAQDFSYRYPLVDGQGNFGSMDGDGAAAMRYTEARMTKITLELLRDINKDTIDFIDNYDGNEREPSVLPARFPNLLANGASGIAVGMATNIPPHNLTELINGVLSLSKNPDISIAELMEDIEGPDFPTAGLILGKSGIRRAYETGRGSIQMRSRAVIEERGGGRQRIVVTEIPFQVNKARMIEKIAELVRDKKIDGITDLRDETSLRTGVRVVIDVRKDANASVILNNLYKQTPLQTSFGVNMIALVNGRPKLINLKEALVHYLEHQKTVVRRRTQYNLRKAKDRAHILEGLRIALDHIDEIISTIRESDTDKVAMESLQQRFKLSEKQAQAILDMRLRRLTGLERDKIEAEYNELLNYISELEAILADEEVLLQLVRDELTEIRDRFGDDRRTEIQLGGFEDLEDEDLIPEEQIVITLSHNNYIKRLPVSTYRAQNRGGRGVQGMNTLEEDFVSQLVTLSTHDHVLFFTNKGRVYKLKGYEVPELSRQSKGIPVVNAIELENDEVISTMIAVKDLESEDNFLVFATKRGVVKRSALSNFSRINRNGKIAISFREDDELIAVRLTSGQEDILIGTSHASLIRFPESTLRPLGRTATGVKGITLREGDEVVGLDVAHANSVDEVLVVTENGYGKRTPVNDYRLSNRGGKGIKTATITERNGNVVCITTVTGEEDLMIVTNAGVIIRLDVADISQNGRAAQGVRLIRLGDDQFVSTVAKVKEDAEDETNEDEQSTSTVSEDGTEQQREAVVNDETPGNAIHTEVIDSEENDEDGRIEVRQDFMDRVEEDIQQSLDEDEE

| Compound | MIC [1] | MIC [2] |
| --- | --- | --- |
| O=C(O)[C@H](Cc1ccccc1)N1C(=O)/C(=C/c2cccc(-c3ccccc3)c2)SC1=S | 17.5 µM (≈ 7.8 µg/mL) | 0.5 µM (≈ 0.223 µg/mL) |
| O=C(O)[C@H](Cc1ccccc1)N1C(=O)/C(=C/c2cccc(Oc3ccccc3)c2)SC1=S | 50 µM (≈ 23.1 µg/mL) | 10 µM (≈ 4.62 µg/mL) |
| O=C(O)[C@@H](Cc1ccccc1)N1C(=O)/C(=C/c2cccc(Oc3ccc(F)cc3)c2)SC1=S | 17.5 µM (≈ 8.39 µg/mL) | 5 µM (≈ 2.4 µg/mL) |
| O=C(O)[C@H](Cc1ccccc1)N1C(=O)/C(=C/c2cccc(Oc3cccc(Cl)c3)c2)SC1=S | 10 µM (≈ 4.96 µg/mL) | 7.5 µM (≈ 3.72 µg/mL) |
| O=C(O)[C@H](Cc1ccccc1)N1C(=O)/C(=C/c2cccc(Cc3ccccc3)c2)SC1=S | 25 µM (≈ 11.5 µg/mL) | 17.5 µM (≈ 8.04 µg/mL) |
| O=C(O)[C@H](Cc1ccccc1)N1C(=O)/C(=C/c2cccc(Cc3ccc(Cl)c(Cl)c3)c2)SC1=S | 7.5 µM (≈ 3.96 µg/mL) | 0.75 µM (≈ 0.396 µg/mL) |
| O=C(O)[C@H](Cc1ccccc1)N1C(=O)/C(=C/c2cccc(OCc3ccccc3)c2)SC1=S | 25 µM (≈ 11.9 µg/mL) | 17.5 µM (≈ 8.32 µg/mL) |
| O=C(O)[C@H](Cc1ccccc1)N1C(=O)/C(=C/c2cccc(-c3ccc(Cl)c(Cl)c3)c2)SC1=S | 5 µM (≈ 2.57 µg/mL) | 10 µM (≈ 5.14 µg/mL) |
| O=C(O)[C@H](Cc1ccccc1)N1C(=O)/C(=C/c2cccc(Oc3ccc(Cl)c(Cl)c3)c2)SC1=S | 5 µM (≈ 2.65 µg/mL) | 2.5 µM (≈ 1.33 µg/mL) |
| O=C(O)[C@H](Cc1ccccc1)N1C(=O)/C(=C/c2cccc(OC/C=C\c3ccccc3)c2)SC1=S | 10 µM (≈ 5.02 µg/mL) | 5 µM (≈ 2.51 µg/mL) |
| O=C(c1ccccc1)c1cccc(/C=C2\SC(=S)N([C@@H](Cc3ccccc3)C(=O)O)C2=O)c1 | 50 µM (≈ 23.7 µg/mL) | 50 µM (≈ 23.7 µg/mL) |
| CO[C@@H]1[C@@H](OC(N)=O)[C@@H](O)[C@H](Oc2ccc3c(O)c(NC(=O)c4ccc(O)c(CC=C(C)C)c4)c(=O)oc3c2C)OC1(C)C |  | 2.5 µM (≈ 1.53 µg/mL) |
